Test results from patent publication US7211567B1, “Composition for preventing and treating type I allergy” (Sunstar, Inc., priority 1999, dated 2007).

Key:
[1] = tested on: passive cutaneous anaphylaxis (auricula swelling); assay: Suppression of passive cutaneous anaphylaxis (PCA) in mice; format: in vivo, ddY male mice; settings: astragalin 1.25 mg/kg oral
Experimental: Ten 5-week-old ddY male mice were purchased from Japan SLC, and were reared at a room temperature of 23±3° C. and a humidity of 55±15%, with a 12 hour light-dark cycle (light period 7:00 to 19:00). The mice were kept 5 to a cage, and were fed a standard diet (Labo MR Stock, Nihon Nosan Kogyo K.K.) for a 7-day preliminary period, before being divided into a group to be administered astragalin and a control group each of 5 mice. A 0.025% (w/v) solution of astragalin in distilled water was forcedly orally administered (1.25 mg/5 ml/kg) to the astragalin-administered group using a metal stomach tube, while distilled water was forcedly orally administered (5 ml/kg) to the control group. One hour after the administration, 20 μl of an anti-DNP mouse IgE antibody (10 μg/ml) was intracutaneously injected into the right auricula and 20 μl of physiological saline into the left auricula of each mouse. 24 hours after the intracutaneous injections, 100 μl of DNP-BSA (1 mg/ml) was intravenously injected into the tail of each mouse. 15 minutes later, the thicknesses of the left and right auriculae of each mouse were measured three times using a thickness gauge (Ozaki Seisakusho K.K.). The auricula swelling rate was then calculated for each group using undermentioned equation 1, and the auricula swelling suppression rate was calculated using undermentioned equation 2. The measurement values were represented by the mean and standard deviation.

[2] = tested on: histamine release (CRA-1 anti human FcεRI stimulated human whole blood cells); assay: Histamine release suppression test using human whole blood; format: cell-based; settings: for histamine release suppression rate: N=3, mean ± SD
Experimental: Human whole blood was collected from healthy volunteers and heparin was added thereto. A blood sample was prepared by adding 6 parts by weight of a histamine release buffer (Immunotech) to 1 part by weight of the whole blood to which the heparin had been added. 200 μl of the blood sample and 100 μl of a histamine release buffer comprising astragalin (33 μM), kaempferol (33 μM) or epinephrine (1638 μM or 4917 μM) were placed in an Eppendorf tube and allowed to stand for 30 minutes while cooling in ice (final concentration: 11 μM for astragalin, 11 μM for kaempferol, 546 μM or 1639 μM for epinephrine).
Centrifugal separation (3000 rpm, 5 minutes, 4° C.) was then carried out and the supernatant removed, and the resulting cells were again put into 300 μl of a histamine release buffer. 4.5 μl of 1 mg/ml CRA-1 (an anti human FcεRI receptor antibody, Cosmo Bio) was next added to the mixture (final CRA-1 concentration 15 μg/ml), and incubation was carried out for 30 minutes at 37° C. After centrifugation (3000 rpm, 10 minutes, 4° C.), the amount of histamine in the supernatant was measured using a histamine EIA kit (Immunotech). The histamine release suppression rate (%) was then calculated using undermentioned equation 3 from histamine amounts calculated from a calibration curve. The measurements were carried out with N=3, and the measurement values were represented by the mean and standard deviation.
[formula] A: Amount of histamine released from cells to which astragalin/kaempferol/epinephrine added (n mole) B: Amount of histamine released from untreated cells (n mole) C: Amount of histamine released from cells to which only CRA-1 added (n mole)

[3] = tested on: atopic dermatitis in NC/Nga mice; assay: Intake test using NC/Nga mice: dermal symptoms of atopic dermatitis; format: in vivo, NC/Nga male mice; settings: 0.0007% astragalin in diet ad libitum; end of experiment (13 weeks old); 5 mice; control 4 of 5 developed symptoms
Experimental: NC/Nga mice are conventional grade animals, and atopic dermatitis model mice that spontaneously develop atopic dermatitis. Moreover, the development of atopy is accompanied by a rise in serum IgE level.
(§1) Ten 4-week-old NC/Nga male mice were purchased from Japan SLC, and were reared at a room temperature of 23±3° C. and a humidity of 55±15%, with a 12 hour light-dark cycle (light period 7:00 to 19:00). The mice were kept 5 to a cage, and were fed a standard diet (Labo MR Stock, Nihon Nosan Kogyo K.K.) for a 7-day preliminary period, before being divided into a control group and a group to be administered astragalin, each of 5 mice. The mice were then allowed to eat the following diets ad libitum. Control group: A diet prepared by adding a corn starch (0.0007%, Oriental Enzyme K.K.) to MF powder (Oriental Enzyme K.K.) and then mixing in a mixer.
(§2) Astragalin-administered group: A diet prepared by adding astragalin (0.0007%) to the MF powder and then mixing in a mixer.
The following judgement criteria were used.
Slight inflammation or scratch wounds: 1
Medium degree inflammation, scratch wounds or bleeding: 2
Severe inflammation, scratch wounds or bleeding: 3
For each mouse, the judgement was carried out for each of the head, the shoulders and the back, and then the highest of the three scores was taken as the ‘maximum score’. […]

serum IgE level = assay: Intake test using NC/Nga mice: serum IgE level; format: in vivo, NC/Nga male mice; settings: 0.0007% astragalin in diet; end of experiment (13 weeks); control 6,018 ng/ml; difference statistically significant
Experimental: as §1, §2
The serum IgE level was measured at the start of the experiment and then at 2-week intervals until the end of the experiment by collecting blood from the orbit and then using a mouse IgE measurement kit ‘Yamasa’ EIA (lot 702). The serum IgE level measurement values were represented by the mean and standard deviation. The differences between the two groups were tested for statistical significance using t-tests, and a significance level of 5% or less was determined significant.

[4] = tested on: IL-4 mRNA expression in human basophilic leukemia cell line (KU812); assay: Expression of IL-4 mRNA using RT-PCR in KU812 cells; format: cell-based; settings: A23187 ionophore 1 μM
Experimental: A human basophilic leukemia cell line (KU812) was cultured at 37° C. with 5% CO2 in an RPMI 1640 culture medium (Gibco) containing 10% bovine fetal serum (treated at 56° C. for 30 minutes). The KU812 cells (5×10^5 cells/ml) were then stimulated using astragalin (0, 1.1, 3.3 or 11 μM) and an A23187 ionophore (1 μM). After washing, the total RNA was collected using RNAzol (Biotex, USA). 500 ng of the collected total RNA was mixed with an RT mixture (Perkin Elmer Cetus, USA), and then incubation was carried out for 5 minutes at 99° C. followed by 60 minutes at 37° C. After the RT products had been obtained, PCR amplification was carried out using an IL-4-specific primer and β-actin-specific primer. The products were subjected to migration in 2% agarose gel and stained with ethidium bromide, and then the amount of expression was evaluated.

pollinosis symptoms = assay: Pollinosis symptom scores in volunteers drinking astragalin solution; format: in vivo, human volunteers; settings: for Impediment to daily life total point score / Nasal congestion total point score / Nasal discharge total point score / Sneezing total point score: mean of 13 volunteers
Experimental: Thirteen volunteers who had previously experienced pollinosis were asked to drink 240 μg of astragalin (in the form of 1 ml of concentrated persimmon leaf extract) dissolved in a suitable amount (50 to 200 ml) of water or hot water twice a day (morning and evening) starting 14 days before the start of the pollen season and ending 14 days after the start of the pollen season.
Sneezing, nasal discharge, nasal congestion and extent of impediment to daily life were evaluated using a points system both during the 7 days immediately before stopping drinking the astragalin solution (‘while drinking’ below) and during the 7 days immediately after stopping drinking the astragalin solution (‘after stopping drinking’ below).
For sneezing, 1 point was recorded for each sneeze. For nasal discharge, 1 point was recorded each time the nose was blown. […] For extent of impediment to daily life, 3 points were recorded when one could not settle down to work at all, 2 points were recorded when there was some impediment to working, 1 point was recorded when there was little impediment to working, and 0 points were recorded when there was no impediment to working; points were recorded daily.
The total point scores for the 7-day ‘while drinking’ period and the 7-day ‘after stopping drinking’ period are shown in Table 1 below as mean values over the 13 volunteers.

[5] = after stopping drinking (7 days immediately after)
[6] = while drinking (7 days before stopping), 240 μg astragalin twice a day, p 0.003

O=c1c(O[C@@H]2O[C@H](CO)[C@@H](O)[C@H](O)[C@H]2O)c(-c2ccc(O)cc2)oc2cc(O)cc(O)c12 [astragalin, kaempferol-3-glucoside]
right auricula thickness ([1]; anti-DNP IgE-injected right auricula, 15 min after DNP-BSA i.v., mean ± SD): 0.286±0.017 mm | auricula swelling suppression rate ([1]; versus distilled water control): 33% | auricula swelling rate ([1]; control 27.2±12.5%): 18.2±5.0% | left auricula thickness ([1]; saline-injected left auricula, 15 min after DNP-BSA i.v., mean ± SD): 0.242±0.013 mm | histamine release suppression rate ([2]; 11 μM final concentration): 50±7% | histamine release suppression action about the same as that of epinephrine of x times the concentration ([2]; astragalin 11 μM versus epinephrine 1639 μM): ~150 times | development of atopic dermatitis symptoms [3]: not one mouse had developed symptoms | serum IgE level (serum IgE level): 1,225 ng/ml | IL-4 expression ([4]; astragalin 3.3 μM or 11 μM): particularly marked effects | IL-4 expression ([4]; astragalin 1.1, 3.3 or 11 μM): suppressed | Impediment to daily life total point score (pollinosis symptoms; [5]): 10 ± 10 points | Nasal congestion total point score (pollinosis symptoms; [5]): 13 ± 11 points | Nasal discharge total point score (pollinosis symptoms; [5]): 62 ± 83 points | Sneezing total point score (pollinosis symptoms; [5]): 68 ± 79 points | rough skin condition (pollinosis symptoms; two of the volunteers with rough skin before treatment, while drinking the astragalin solution): improved | Sneezing total point score (pollinosis symptoms; while drinking (7 days before stopping), 240 μg astragalin twice a day as concentrated persimmon leaf extract, p 0.001): 23 ± 21 points | Nasal congestion total point score (pollinosis symptoms; [6]): 3 ± 3 points | Nasal discharge total point score (pollinosis symptoms; [6]): 21 ± 26 points | Impediment to daily life total point score (pollinosis symptoms; while drinking (7 days before stopping), 240 μg astragalin twice a day, p 0.005): 1 ± 2 points

O=c1c(O)c(-c2ccc(O)cc2)oc2cc(O)cc(O)c12 [kaempferol]
histamine release suppression rate ([2]; 11 μM final concentration): 31±9%

CNC[C@H](O)c1ccc(O)c(O)c1 [epinephrine]
histamine release suppression rate ([2]; 546 μM final concentration): 31±3% | histamine release suppression rate ([2]; 1639 μM final concentration): 55±4%
